Consider 23 molecules from patent US20210214375A1 (LUNDBECK LA JOLLA RESEARCH CENTER, INC., priority 2017, published 2021).

Bounds are passed on as bounds.

For one experiment, the target named is T1, MGLL (Mus musculus, UniProt O35678).
T1 construct: Brain; from tissue; host or cells: mouse brain proteome
T1 sequence (O35678 1-303): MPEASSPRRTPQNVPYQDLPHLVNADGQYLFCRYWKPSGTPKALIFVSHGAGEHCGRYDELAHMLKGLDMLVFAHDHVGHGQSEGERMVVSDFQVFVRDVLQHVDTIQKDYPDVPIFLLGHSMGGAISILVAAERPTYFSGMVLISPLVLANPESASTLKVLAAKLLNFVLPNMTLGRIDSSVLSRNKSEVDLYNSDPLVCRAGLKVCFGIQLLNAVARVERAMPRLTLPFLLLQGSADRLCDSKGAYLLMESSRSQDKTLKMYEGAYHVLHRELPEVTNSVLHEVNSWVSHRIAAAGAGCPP
The experiment in a line: In vitro competitive activity-based protein profiling, mouse brain proteome. It is filed as biochemical. The protocol:
[Worded in the source for another species; this species is reported under the same test.] (§1) Proteomes (human prefrontal cortex or cell membrane fractions) (50 μL, 1.0 mg/mL total protein concentration) were preincubated with varying concentrations of inhibitors at 37° C. After 30 min, FP—Rh or HT-01 (1.0 μL, 50 μM in DMSO) was added and the mixture was incubated for another 30 min at room temperature. Reactions were quenched with SDS loading buffer (15 μL-4×) and run on SDS-PAGE.

The target of a further experiment is T2, ABHD6 (Mus musculus, UniProt Q8R2Y0).
T2 construct: Brain; from tissue; host or cells: mouse brain proteome
T2 sequence (Q8R2Y0 1-336): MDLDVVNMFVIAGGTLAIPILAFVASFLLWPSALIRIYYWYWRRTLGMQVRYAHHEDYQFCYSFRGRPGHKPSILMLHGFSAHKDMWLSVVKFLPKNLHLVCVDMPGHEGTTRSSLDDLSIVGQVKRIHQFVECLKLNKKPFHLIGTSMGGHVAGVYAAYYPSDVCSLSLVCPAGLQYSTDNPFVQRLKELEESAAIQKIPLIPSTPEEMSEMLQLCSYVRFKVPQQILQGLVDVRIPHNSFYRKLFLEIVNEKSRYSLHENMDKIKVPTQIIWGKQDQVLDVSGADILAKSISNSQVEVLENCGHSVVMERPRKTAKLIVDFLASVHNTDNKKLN
The experiment in a line: In vitro competitive activity-based protein profiling, mouse brain proteome, ABHD6. It counts as biochemical. To be noted: for IC50: mouse. As for the experimental part:
[Worded in the source for another target; this target is reported under the same test.] as §1

Usually IC50 stands for the concentration at which inhibition is half-maximal. Higher therefore signals lower potency. As for `O=C(OC(C(F)(F)F)C(F)(F)F)N1CCC2(CC1)CN(Cc1ccc(Cl)cc1N1CCCCC1)C2` [Example 38, 1,1,1,3,3,3-Hexafluoropropan-2-yl 2-(4-chloro-2-(piperidin-1-yl)benzyl)-2,7-diazaspiro[3.5]nonane-7-carboxylate], the IC50 at MGLL and on ABHD6 was 100 to 1000 nM each time.

As for `O=C(OC(C(F)(F)F)C(F)(F)F)N1CC2(CCN(Cc3ccc(C(F)(F)F)cc3N3CCOCC3)CC2)C1` [Example 40, 1,1,1,3,3,3-Hexafluoropropan-2-yl 7-(2-morpholino-4-(trifluoromethyl)benzyl)-2,7-diazaspiro[3.5]nonane-2-carboxylate], the IC50 at MGLL and on ABHD6 was under 100 nM in each case.

Take `O=C(OC(C(F)(F)F)C(F)(F)F)N1CCC2(CC1)CN(Cc1c(Cl)cccc1N1CCCC1)C2` [Example 42, 1,1,1,3,3,3-Hexafluoropropan-2-yl 2-(2-chloro-6-(pyrrolidin-1-yl)benzyl)-2,7-diazaspiro[3.5]nonane-7-carboxylate]: the IC50 on MGLL is under 100 nM; on ABHD6, 100 to 1000 nM.

On to `O=C(OC(C(F)(F)F)C(F)(F)F)N1CCC2(CC1)CN(Cc1c(N3CCOCC3)cccc1C(F)(F)F)C2` [Example 43, 1,1,1,3,3,3-Hexafluoropropan-2-yl 2-(2-morpholino-6-(trifluoromethyl)benzyl)-2,7-diazaspiro[3.5]nonane-7-carboxylate], for which the IC50 at MGLL is under 100 nM; on ABHD6 it was 100 to 1000 nM.

As for `O=C(OC(C(F)(F)F)C(F)(F)F)N1CCC2(CC1)CN(Cc1c(Cl)cccc1N1CCC(F)CC1)C2` [Example 47, 1,1,1,3,3,3-Hexafluoropropan-2-yl 2-(2-chloro-6-(4-fluoropiperidin-1-yl)benzyl)-2,7-diazaspiro[3.5]nonane-7-carboxylate], the IC50 on MGLL and on ABHD6 was under 100 nM in each case.

In the case of `O=C(OC(C(F)(F)F)C(F)(F)F)N1CCC2(CC1)CN(Cc1c(Cl)cccc1N1CCC3(CCOCC3)C1)C2` [Example 48, 1,1,1,3,3,3-Hexafluoropropan-2-yl 2-(2-chloro-6-(8-oxa-2-azaspiro[4.5]decan-2-yl)benzyl)-2,7-diazaspiro[3.5]nonane-7-carboxylate], the 50% inhibitory concentration (IC50) at MGLL and on ABHD6 was under 100 nM throughout.

Consider `O=C(O)C1CCN(c2ccc(CN3CCC4(CC3)CN(C(=O)OC(C(F)(F)F)C(F)(F)F)C4)cc2)CC1` [Example 66, 1-(4-((2-(((1,1,1,3,3,3-Hexafluoropropan-2-yl)oxy)carbonyl)-2,7-diazaspiro[3.5]nonan-7-yl)methyl)phenyl) piperidine-4-carboxylic acid], for which, on MGLL, the “% Inh MGLL Brain (Mouse, μM)” value is “## (## is between 25 and 75%)”. Further, the “% Inh ABHD6 Brain (Mouse, μM)” value on ABHD6 (mouse brain proteome) is on record as “### (### is ≥ 75%)”.

Turning to `O=C(OC(C(F)(F)F)C(F)(F)F)N1CCC2(CC1)CN(Cc1ccc(Cl)c(Cl)c1)C2` [Example 67, 1,1,1,3,3,3-Hexafluoropropan-2-yl 2-(3,4-dichlorobenzyl)-2,7-diazaspiro[3.5]nonane-7-carboxylate], the IC50 at MGLL and at ABHD6 was under 100 nM in each case.

Regarding `O=C(OC(C(F)(F)F)C(F)(F)F)N1CCC2(CC1)CN(Cc1cccc(Oc3ccccc3)c1)C2` [Example 78, 1,1,1,3,3,3-Hexafluoropropan-2-yl 2-(3-phenoxybenzyl)-2,7-diazaspiro[3.5]nonane-7-carboxylate], the IC50 on MGLL and on ABHD6 was under 100 nM each time.

As to `O=C(OC(C(F)(F)F)C(F)(F)F)N1CCC2(CC1)CN(Cc1ccc(N3CCCC3)cc1)C2` [Example 80, 1,1,1,3,3,3-Hexafluoropropan-2-yl 2-(4-(pyrrolidin-1-yl)benzyl)-2,7-diazaspiro[3.5]nonane-7-carboxylate], the IC50 was under 100 nM on MGLL and over 1000 nM at ABHD6.

Regarding `O=C(OC(C(F)(F)F)C(F)(F)F)N1CCC2(CCCN2C(=O)c2ccc(C(F)(F)F)cc2)CC1` [Example 83, 1,1,1,3,3,3-Hexafluoropropan-2-yl 1-(4-(trifluoromethyl)benzoyl)-1,8-diazaspiro[4.5]decane-8-carboxylate], the IC50 is under 100 nM on MGLL and 100 to 1000 nM on ABHD6.

Regarding `Cc1cccc(CN2CC3(CCN(C(=O)OC(C(F)(F)F)C(F)(F)F)CC3)C2)c1` [Example 86, 1,1,1,3,3,3-Hexafluoropropan-2-yl 2-(3-methylbenzyl)-2,7-diazaspiro[3.5]nonane-7-carboxylate], the IC50 at MGLL and on ABHD6 was under 100 nM in each case.

On to `O=C(OC(C(F)(F)F)C(F)(F)F)N1CCC2(CC1)CN(Cc1cccc(C(F)(F)F)c1)C2` [Example 89, 1,1,1,3,3,3-Hexafluoropropan-2-yl 2-(3-(trifluoromethyl)benzyl)-2,7-diazaspiro[3.5]nonane-7-carboxylate], for which the IC50 at MGLL and at ABHD6 was under 100 nM each time.

Take `O=C(OC(C(F)(F)F)C(F)(F)F)N1CC2(CCN(Cc3c(N4CCCC4)cccc3C(F)(F)F)CC2)C1` [Example 148, 1,1,1,3,3,3-Hexafluoropropan-2-yl 7-(2-(pynrolidin-1-yl)-4-(trifluoromethyl)benzyl)-2,7-diazaspiro[3.5]nonane-2-carboxylate]: the IC50 at MGLL and at ABHD6 was 100 to 1000 nM in each case.

`CC(=O)N1CCCc2cccc(CN3CCC4(CC3)CN(C(=O)OC(C(F)(F)F)C(F)(F)F)C4)c21` [Example 152, 1,1,1,3,3,3-Hexafluoropropan-2-yl 7-((1-acetyl-1,2,3,4-tetrahydroquinolin-8-yl)methyl)-2,7-diazaspiro[3.5]nonane-2-carboxylate]: the IC50 at MGLL and at ABHD6 was under 100 nM in each case.

As for `CN1CC2(CCN(c3cc(Cl)ccc3CN3CCN(C(=O)OC(C(F)(F)F)C(F)(F)F)CC3)C2)C1` [Example 169, 1,1,1,3,3,3-Hexafluoropropan-2-yl 4-(4-chloro-2-(2-methyl-2,6-diazaspiro[3.4]octan-6-yl)benzyl)piperazine-1-carboxylate], the values for the IC50 on MGLL and on ABHD6 were 100 to 1000 nM and over 1000 nM, respectively.

Consider `CCN1CCC2(CCN(c3cc(Cl)ccc3CN3CCN(C(=O)OC(C(F)(F)F)C(F)(F)F)CC3)CC2)C1` [Example 170, 1,1,1,3,3,3-Hexafluoropropan-2-yl 4-(4-chloro-2-(2-ethyl-2,8-diazaspiro[4.5]decan-8-yl)benzyl)piperazine-1-carboxylate], for which the IC50 on MGLL is 100 to 1000 nM; at ABHD6, over 1000 nM.

As for `CCN1CC2(CCN(c3cc(Cl)ccc3CN3CCN(C(=O)OC(C(F)(F)F)C(F)(F)F)CC3)C2)C1` [Example 173, 1,1,1,3,3,3-Hexafluoropropan-2-yl 4-(4-chloro-2-(2-ethyl-2,6-diazaspiro[3.4]octan-6-yl)benzyl)piperazine-1-carboxylate], the IC50 on MGLL is 100 to 1000 nM; at ABHD6, over 1000 nM.

Consider `O=C(OC(C(F)(F)F)C(F)(F)F)N1CCC2(CCN(Cc3ccc(C(F)(F)F)cc3N3CC4COCC4C3)CC2)C1` (stereo not shown) [Example 188, 1,1,1,3,3,3-Hexafluoropropan-2-yl 8-(2-(tetrahydro-1H-furo[3,4-c]pyrrol-5(3H)-yl)-4-(trifluoromethyl)benzyl)-2,8-diazaspiro[4.5]decane-2-carboxylate], for which the results for the IC50 on MGLL and at ABHD6 were 100 to 1000 nM and over 1000 nM, respectively.

Turning to `CC(=O)N1CCCc2cccc(CN3CCC4(CC3)CCN(C(=O)OC(C(F)(F)F)C(F)(F)F)C4)c21` [Example 193, 1,1,1,3,3,3-Hexafluoropropan-2-yl 8-((1-acetyl-1,2,3,4-tetrahydroquinolin-8-yl)methyl)-2,8-diazaspiro[4.5]decane-2-carboxylate], the IC50 at MGLL and at ABHD6 was over 1000 nM each time.

With `CC(=O)N1CC2CN(c3cc(C(F)(F)F)ccc3CN3CCN(C(=O)OC(C(F)(F)F)C(F)(F)F)CC3)CC2C1` (stereo not shown) [Example 200, 1,1,1,3,3,3-Hexafluoropropan-2-yl 4-(2-(5-acetylhexahydropyrrolo[3,4-c]pyrrol-2(1H)-yl)-4-(trifluoromethyl)benzyl)piperazine-1-carboxylate], the IC50 at MGLL is under 100 nM; at ABHD6, over 1000 nM.

As to `CS(=O)(=O)N1CC2CN(c3cc(C(F)(F)F)ccc3CN3CCN(C(=O)OC(C(F)(F)F)C(F)(F)F)CC3)CC2C1` (stereo not shown) [Example 201, 1,1,1,3,3,3-Hexafluoropropan-2-yl 4-(2-(5-(methylsulfonyl)hexahydropyrrolo[3,4-c]pyrrol-2(1H)-yl)-4-(trifluoromethyl)benzyl)piperazine-1-carboxylate], the IC50 at MGLL was under 100 nM; at ABHD6, over 1000 nM.

For the molecule `CC(=O)N1CC2CN(c3cc(Cl)ccc3CN3CCN(C(=O)OC(C(F)(F)F)C(F)(F)F)CC3)CC2C1` (stereo not shown) [Example 202, 1,1,1,3,3,3-Hexafluoropropan-2-yl 4-(2-(5-acetylhexahydro-pyrrolo[3,4-c]pyrrol-2(1H)-yl)-4-chlorobenzyl) piperazine-1-carboxylate], the IC50 is 100 to 1000 nM at MGLL and over 1000 nM at ABHD6.
